Test results reported in patent US6410792B1, “Amide derivatives and methods for using the same as selective neuropeptide Y receptor antagonists” (Bayer Corporation, priority 1997, dated 2002).
Where two headings read alike, the source gives them in different places.

Tests used:
Human NPY5 receptor = molecular target: T1, Human NPY5 receptor (Homo sapiens, UniProt Q15761); assay: Human NPY5 receptor binding assay ([125I]PYY, membrane protein)
T1 sequence (Q15761 1-445): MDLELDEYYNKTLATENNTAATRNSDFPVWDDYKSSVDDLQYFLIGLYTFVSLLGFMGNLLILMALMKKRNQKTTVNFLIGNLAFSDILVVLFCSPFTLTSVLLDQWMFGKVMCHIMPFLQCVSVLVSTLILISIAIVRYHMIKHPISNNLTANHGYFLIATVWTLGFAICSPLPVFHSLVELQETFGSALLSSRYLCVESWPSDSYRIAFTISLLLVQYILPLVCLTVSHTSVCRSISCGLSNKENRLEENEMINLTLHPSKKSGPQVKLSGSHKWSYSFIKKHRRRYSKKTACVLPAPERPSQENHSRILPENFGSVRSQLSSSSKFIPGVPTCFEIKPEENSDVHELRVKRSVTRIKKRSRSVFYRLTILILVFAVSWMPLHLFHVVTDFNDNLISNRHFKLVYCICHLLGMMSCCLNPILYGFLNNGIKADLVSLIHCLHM
Procedure: C. Human and Rat NPY5 Receptor Binding Assays
Binding assays are performed on GF/C Millipore 96well plates pretreated with 0.02% polyethylenimine. The binding buffer is 25 mM Tris, 120 mM NaCl, 5 mM KCl, 1.2 mM KH2PO4, 2.5 mM CaCl2, 1.2 mM MgSO4, 0.1% BSA and 0.5 mg/ml bacitracin, pH 7.4. Samples consist of membrane protein, 75-100 pM [125I]PYY (porcine, NEN-DuPont) and drug dilution. Nonspecific binding is defined by 1 μM PYY. After a 2 hour incubation at room temperature with constant mixing, the samples are aspirated on a vacuum manifold, and rinsed with ice-cold binding buffer. The amount of radioactivity in each well is quantitated with either gamma counting or liquid scintillation.

Y2 receptor = molecular target: T2, Y2 receptor (Homo sapiens, UniProt P49146); assay: Y2 receptor binding assay ([125I]PYY, membrane protein); conditions: [125I]PYY binding, membrane protein; read-out: hNPY2 IC50
T2 sequence (P49146 1-381): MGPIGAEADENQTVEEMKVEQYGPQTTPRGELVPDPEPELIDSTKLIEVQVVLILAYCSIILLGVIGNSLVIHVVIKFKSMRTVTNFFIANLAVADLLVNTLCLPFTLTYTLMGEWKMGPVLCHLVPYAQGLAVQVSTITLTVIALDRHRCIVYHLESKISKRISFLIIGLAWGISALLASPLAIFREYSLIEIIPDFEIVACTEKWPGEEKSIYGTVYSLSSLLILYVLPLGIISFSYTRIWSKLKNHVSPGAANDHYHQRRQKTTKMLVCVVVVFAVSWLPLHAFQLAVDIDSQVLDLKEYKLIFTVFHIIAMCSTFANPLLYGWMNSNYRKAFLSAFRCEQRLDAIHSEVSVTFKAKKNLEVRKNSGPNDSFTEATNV
Procedure: B. Human Y2 and Y4/PP1 Receptor Binding Assays
Binding assays were performed on GF/C Millipore 96-well plates pretreated with 0.02% polyethylenimine. The binding buffer for rat Y2 binding is Krebs-Ringer bicarbonate (pH 7.4) containing 0.01% BSA and 0.005% bacitracin. Samples consist of membrane protein, 25 pM [1251]PYY and drug dilution. Nonspecific binding is defined by 1 μM NPY. The binding buffer for human Y4/PP1 binding consists of 137 mM NaCl, 5.4 mM KCl, 0.44 mM KH2PO4, 1.26 mM CaCl2, 0.81 mM MgSO4, 20 mM HEPES, 1 mM dithiothreitol, 0.1% bacitracin, 100 mg/l streptomycin sulfate, 1 mg/l aprotinin, 10 mg/ml soybean trypsin inhibitor and 0.3% BSA, pH 7.4. Samples consist of membrane protein, 50 pM human [1251]human PP (hPP: NEN DuPont, Boston, Mass.) and drug dilution. 1 μM hPP is used to define nonspecific binding.
After a 2 hour incubation at room temperature with constant mixing, the samples are aspirated on a vacuum manifold, and rinsed with ice-cold binding buffer. The amount of radioactivity in each well is quantitated with either gamma counting or liquid scintillation.

[1] = [125I]PYY binding, read-out: hNPY5 IC50

| IC50 (Human NPY5 receptor; [1]) [µM] | IC50 (Y2 receptor) [µM] | SMILES | IC50 (Human NPY5 receptor; hNPY5 IC50, [125I]PYY binding) [µM] |
| --- | --- | --- | --- |
| 0.19 | > 5 | O=C(CN1CCN(c2ccccc2Cl)CC1)Nc1ccc(C2CCCCC2)cc1 [Compound 3, 2-[4-(2-Chloro-phenyl)-piperazin-1-yl]-N-(4-cyclohexyl-phenyl)-acetamide] | – |
| 0.8 | > 5 | O=C(CN1CCOCC1)Nc1ccc(C(=O)c2ccccc2)cc1 [Compound 6, N-(4-Benzoyl-phenyl)-2-morpholin-4-yl-acetamide] | – |
| 1.6 | > 5 | CCN(CC)CC(=O)Nc1ccc(C(=O)c2ccccc2)cc1 [Compound 7, N-(4-Benzoyl-phenyl)-2-diethylamino-acetamide] | – |
| 0.96 | > 5 | O=C(CN1CCN(c2ccccc2Cl)CC1)Nc1ccc(C(=O)c2ccccc2)cc1 [Compound 8, N-(4-Benzoyl-phenyl)-2-[4-(2-chloro-phenyl)-piperazin-1-yl]-acetamide] | – |
| 0.64 | > 5 | O=C(CN1CCN(c2cccc(Cl)c2)CC1)Nc1ccc(C(=O)c2ccccc2)cc1 [Compound 9] | – |
| 2.9 | > 5 | O=C(CN1CCN(c2ccc(Cl)cc2)CC1)Nc1ccc(C(=O)c2ccccc2)cc1 [Compound 10, N-(4-Benzoyl-phenyl)-2-[4-(4-chloro-phenyl)-piperazin-1-yl]-acetamide] | – |
| 2.8 | > 5 | O=C(CNCc1ccccc1)Nc1ccc(C2CCCCC2)cc1 [Compound 11, 2-Benzylamino-N-(4-cyclohexyl-phenyl)-acetamide] | – |
| 9.1 | > 5 | O=C(CN1CCN(Cc2ccccc2)CC1)Nc1ccc(C2CCCCC2)cc1 [Compound 13, 2-(4-Benzyl-piperazin-1-yl)-N-(4-cyclohexyl-phenyl)-acetamide] | – |
| 1.8 | > 5 | O=C(CN(CCO)c1ccccc1)Nc1ccc(C2CCCCC2)cc1 [Compound 14, N-(4-cyclohexyl-phenyl)-2-[(2-hydroxy-ethyl)-phenyl-amino]-acetamide] | – |
| 9.6 | > 5 | O=C(CN1CCN(Cc2ccccc2)CC1)Nc1ccc(C(=O)c2ccccc2)cc1 [Compound 16, N-(4-Benzoyl-phenyl)-2-(4-benzyl-piperazin-1-yl)-acetamide] | – |
| 1.2 | > 5 | O=C(CN(CCO)c1ccccc1)Nc1ccc(C(=O)c2ccccc2)cc1 [Compound 17, N-(4-Benzoyl-phenyl)-2-[(2-hydroxy-ethyl)-phenyl-amino]-acetamide] | – |
| 0.4 | > 5 | O=C(CN1CCC(O)(Cc2ccccc2)CC1)Nc1ccc(C(=O)c2ccccc2)cc1 [Compound 19, N-(4-Benzoyl-phenyl)-2-(4-benzyl-4-hydroxy-piperidin-1-yl)-acetamide] | – |
| 7.6 | > 5 | O=C(CN1[C@@H](C(=O)O)CC[C@@H]1O)Nc1ccc(C(=O)c2ccccc2)cc1 [Compound 20, (5S,2R)-1-[(4-Benzoyl-phenylcarbamoyl)-methyl]-5-hydroxy-pyrrolidine-2-carboxylic acid] | – |
| 0.63 | > 5 | CCN(CC(=O)Nc1ccc(C(=O)c2ccccc2)cc1)Cc1ccncc1 [Compound 21, N-(4-Benzoyl-phenyl)-2-(ethyl-pyridin-4-ylmethyl-amino)-acetamide] | – |
| 9.9 | > 5 | O=C(CN(c1ccccn1)c1ccccn1)Nc1ccc(C(=O)c2ccccc2)cc1 [Compound 22, N-(4-Benzoyl-phenyl)-2-(di-pyridin-2-yl-amino)-acetamide] | – |
| > 10 | > 5 | O=C(CN1CCC(CCCC2CCNCC2)CC1)Nc1ccc(C2CCCCC2)cc1 [Compound 23, N-(4-Cyclohexyl-phenyl)-2-[4-(3-piperidin-4-yl-propyl)-piperidin-1-yl]-acetamide] | – |
| 2.9 | > 5 | O=C(CN1CCC(N2CCCCC2)CC1)Nc1ccc(C2CCCCC2)cc1 [Compound 24, 2-[1,4′]Bipiperidinyl-1′-yl-N-(4-cyclohexyl-phenyl)-acetamide] | – |
| 8.9 | > 5 | O=C(CNCC1CCNCC1)Nc1ccc(C2CCCCC2)cc1 [Compound 28, N-(4-Cyclohexyl-phenyl)-2-[(piperidin-4-ylmethyl)-amino]-acetamide] | – |
| 4.4 | > 5 | O=C(CN1CCC(N2CCCC2)CC1)Nc1ccc(C2CCCCC2)cc1 [Compound 29] | – |
| 1.2 | > 5 | NC(=O)C1(Nc2ccccc2)CCN(CC(=O)Nc2ccc(C3CCCCC3)cc2)CC1 [Compound 31, 1-[(4-Cyclohexyl-phenylcarbamoyl)-methyl]-4-phenylamino-piperidine-4-carboxylic acid amide] | – |
| 3 | > 5 | CN(C)C1CCN(CC(=O)Nc2ccc(C3CCCCC3)cc2)CC1 [Compound 32, N-(4-Cyclohexyl-phenyl)-2-(4-dimethylamino-piperidin-1-yl)-acetamide] | – |
| > 10 | > 5 | CC1CCN(CC(=O)Nc2ccc(C3CCCCC3)cc2)CC1 [Compound 33, N-(4-Cyclohexyl-phenyl)-2-(4-methyl-piperidin-1-yl)-acetamide] | – |
| 1.4 | > 5 | CC1(C)CCN(CC(=O)Nc2ccc(C3CCCCC3)cc2)CC1 [Compound 34, N-(4-Cyclohexyl-phenyl)-2-(4,4-dimethyl-piperidin-1-yl)-acetamide] | – |
| 0.63 | > 5 | NC(=O)C1(NC2CCCCC2)CCN(CC(=O)Nc2ccc(C3CCCCC3)cc2)CC1 [Compound 35, 4-Cyclohexylamino-1-[(4-cyclohexyl-phenylcarbamoyl)-methyl]-piperidin-4-carboxylic acid amide] | – |
| 0.71 | > 5 | CN(C)C1(C(N)=O)CCN(CC(=O)Nc2ccc(C3CCCCC3)cc2)CC1 [Compound 36, 1-[(4-Cyclohexyl-phenylcarbamoyl)-methyl]-4-dimethylamino-piperidine-4-carboxylic acid amide] | – |
| > 10 | > 5 | O=C(CN1CCC(CCCC2CCNCC2)CC1)Nc1ccc(C(=O)c2ccccc2)cc1 [Compound 37, N-(4-Benzoyl-phenyl)-2-[4-(3-piperidin-4-yl-propyl)-piperidin-1-yl]-acetamide] | – |
| 8.5 | > 5 | O=C(CN1CCC(Cc2ccccc2)CC1)Nc1ccc(C(=O)c2ccccc2)cc1 [Compound 38, N-(4-Benzoyl-phenyl)-2-(4 benzyl-piperidin-1-yl)-acetamide] | – |
| 2.1 | > 5 | O=C(CN1CCC(N2CCCCC2)CC1)Nc1ccc(C(=O)c2ccccc2)cc1 [Compound 39, N-(4-Benzoyl-phenyl)-2-[1,4′]bipiperidinyl-1′-yl-acetamide] | – |
| > 10 | > 5 | O=C(CN1CCC(C(=O)O)CC1)Nc1ccc(C(=O)c2ccccc2)cc1 [Compound 40, 1-[(4-Benzoyl-phenylcarbamoyl)-methyl]-piperidine-4-carboxylic acid] | – |

| SMILES | IC50 (Human NPY5 receptor; [1]) [µM] | IC50 (Y2 receptor) [µM] | IC50 (Human NPY5 receptor; hNPY5 IC50, [125I]PYY binding) [µM] |
| --- | --- | --- | --- |
| O=C(CN1CC=C(c2ccc(Cl)cc2)CC1)Nc1ccc(C(=O)c2ccccc2)cc1 [Compound 18, N-(4-Benzoyl-phenyl)-2-[4-(4-chloro-phenyl)-3,6-dihydro-2H-pyridin-1-yl]-acetamide] | 5.2 | > 5 | – |
| O=C(CN1CCC(O)(c2ccccc2)CC1)Nc1ccc(C(=O)c2ccccc2)cc1 [Compound 41, N-(4-Benzoyl-phenyl)-2-(4-hydroxy-4-phenyl-piperidin-1-yl)-acetamide] | – | > 5 | 0.06 |
